This is an account of results in the supplement of paper PMC10307832.

Experiment in all cases: relative viability (nuclei count vs DMSO), 5 days (fraction); higher = more cells survive
Compound in the assay “Tosedostat + Dasatinib”: CC(C)C[C@@H](C(=O)N[C@H](C(=O)OC1CCCC1)c1ccccc1)[C@H](O)C(=O)NO [Tosedostat] + Cc1nc(Nc2ncc(C(=O)Nc3c(C)cccc3Cl)s2)cc(N2CCN(CCO)CC2)n1 [Dasatinib] (partner 0.075 µM)
Summed up: (§1)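 Lung cancer cell lines in 1536-well plates got either a single drug or a fixed anchor-drug dose together with five library-drug doses (not always all listed) in √10 steps, by pin tool, on the day after seeding. Nuclei were counted after 5 days, and relative viability is the treated-to-vehicle ratio of nuclei counts. Values are medians of duplicate plates.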

Compound in assay [1]: CC1=NN=C(O1)C2=NN=C(C=C2)N3CCC(CC3)OC4=C(C=CC(=C4)F)Cl + CC(=O)Nc1cccc(-n2c(=O)n(C3CC3)c(=O)c3c(Nc4ccc(I)cc4F)n(C)c(=O)c(C)c32)c1 [Trametinib] (partner 0.02 µM)
Summed up: as §1

Compound in assay [2]: CC1=NN=C(O1)C2=NN=C(C=C2)N3CCC(CC3)OC4=C(C=CC(=C4)F)Cl + CC1(C)CCC(c2ccc(Cl)cc2)=C(CN2CCN(c3ccc(C(=O)NS(=O)(=O)c4ccc(N[C@H](CCN5CCOCC5)CSc5ccccc5)c(S(=O)(=O)C(F)(F)F)c4)cc3)CC2)C1 [Navitoclax] (partner 0.5 µM)
An outline of the steps:
as §1

Compound in assay [3]: CC1=NN=C(O1)C2=NN=C(C=C2)N3CCC(CC3)OC4=C(C=CC(=C4)F)Cl + COc1cccc2cc(-c3nc([C@H]4CC[C@H](C(=O)O)CC4)n4ncnc(N)c34)[nH]c12 [OSI-027] (partner 0.5 µM)
An outline of the steps:
as §1

With UMC-11, the relative viability was 0.499 with Tosedostat + Dasatinib (first compound 0.02 µM); 0.454 with Tosedostat + Dasatinib (first compound 0.06325 µM); 0.453 with Tosedostat + Dasatinib (first compound 0.2 µM); 0.448 in the assay with Tosedostat + Dasatinib (first compound 0.6325 µM); 0.504 with Tosedostat + Dasatinib (first compound 2 µM); 0.457 in assay [1] (first compound 0.253 µM). Moreover, the relative viability came out at 0.531 in assay [1] (first compound 0.8 µM); 0.33 in assay [1] (first compound 2.53 µM); 0.43 in assay [1] (first compound 8 µM); 0.287 in assay [2] (first compound 0.253 µM); 0.344 in assay [2] (first compound 0.8 µM); 0.315 in assay [2] (first compound 2.53 µM). For the same cell line, the relative viability in assay [2] (first compound 8 µM) is 0.317; in assay [3] (first compound 0.253 µM), 0.446; in assay [3] (first compound 0.8 µM), 0.482; in assay [3] (first compound 2.53 µM), 0.529; in assay [3] (first compound 8 µM), 0.565.
